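Briefly, cells in 96-well plates were exposed to five compound concentrations for 48 h, and endpoints were estimated by linear interpolation. TGI is the concentration that stops growth completely.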

Test systems include SF-539 CNS; UACC-257 melanoma; LOX IMVI melanoma; TK-10 renal; K-562 leukemia; NCI-H23 lung; SK-MEL-5 melanoma; HCT-15 colon; MDA-MB-231 breast; SF-268 CNS; UACC-62 melanoma; OVCAR-3 ovarian; A549 NSCLC; COLO 205 colon; NCI-H226 lung; HS 578T breast; A498 renal; M14 melanoma; EKVX NSCLC; SR leukemia.
Holding throughout (test): inhibition of tumour cell growth, NCI panel, 48 h

`CC1=NN(c2nc(N)nc(CSc3cc(Cl)c(C)cc3S(N)(=O)=O)n2)C(C)(C)C1`: the TGI in the assay on SF-539 CNS, with UACC-257 melanoma, with LOX IMVI melanoma, in the assay with TK-10 renal, in the assay on K-562 leukemia and with NCI-H23 lung was over 10 µM throughout. The TGI in the assay with SK-MEL-5 melanoma, with HCT-15 colon, in the assay with MDA-MB-231 breast, with SF-268 CNS, in the assay with UACC-62 melanoma and in the assay on OVCAR-3 ovarian was over 10 µM throughout. In addition, the TGI in the assay on A549 NSCLC, with COLO 205 colon, in the assay on NCI-H226 lung, with HS 578T breast, in the assay with A498 renal and in the assay with M14 melanoma was over 10 µM in each case. For the same molecule, in the assay with EKVX NSCLC, the TGI was over 10 µM.
In the case of `COC(=O)c1c(C)[nH]c2c1C(=O)C(=O)c1nc(C)c(C)nc1-2`, the TGI in the assay on SF-539 CNS was 24.8 µM; with UACC-257 melanoma, 24.6 µM; with LOX IMVI melanoma it was 24.1 µM; in the assay with TK-10 renal, 9.68 µM; in the assay with K-562 leukemia it was over 100 µM; in the assay with NCI-H23 lung, 36.9 µM. Further, the TGI with SK-MEL-5 melanoma is 20 µM; with HCT-15 colon it was over 100 µM; with SF-268 CNS, 23.6 µM; with SR leukemia it was 44.9 µM; in the assay on UACC-62 melanoma, 18.9 µM; in the assay with OVCAR-3 ovarian, 23.3 µM. Also, the TGI is over 100 µM with A549 NSCLC; 29.5 µM with COLO 205 colon; 26.7 µM with NCI-H226 lung; 58.6 µM with HS 578T breast; 40 µM in the assay with A498 renal; 27 µM in the assay on M14 melanoma. Besides, in the assay on EKVX NSCLC, the TGI came to 22.6 µM.
With `CSc1nc(Nc2ccccc2Cl)c2c(N)nn(C)c2n1`, the TGI in the assay on UACC-257 melanoma, in the assay with LOX IMVI melanoma, in the assay with TK-10 renal, with K-562 leukemia, in the assay on NCI-H23 lung and in the assay on SK-MEL-5 melanoma was over 100 µM in each case. Further, the TGI with HCT-15 colon, with MDA-MB-231 breast, in the assay with SF-268 CNS, in the assay on UACC-62 melanoma, in the assay on OVCAR-3 ovarian and in the assay with A549 NSCLC was over 100 µM throughout. The TGI with COLO 205 colon, in the assay with NCI-H226 lung, in the assay on HS 578T breast, with A498 renal, in the assay on M14 melanoma and with EKVX NSCLC was over 100 µM in each case.
Take `COC(=O)c1cc(OS(=O)(=O)C(F)(F)F)c(=O)n2c1CCCC2`: the TGI in the assay with SF-539 CNS, in the assay on UACC-257 melanoma, in the assay with LOX IMVI melanoma, in the assay on TK-10 renal, in the assay on NCI-H23 lung and in the assay on SK-MEL-5 melanoma was over 100 µM throughout. For the same molecule, the TGI in the assay with HCT-15 colon, in the assay on MDA-MB-231 breast, in the assay on SF-268 CNS, with UACC-62 melanoma, with A549 NSCLC and in the assay with COLO 205 colon was over 100 µM throughout. Further, the TGI in the assay on NCI-H226 lung, with HS 578T breast, in the assay with A498 renal, in the assay on M14 melanoma and with EKVX NSCLC was over 100 µM each time.
As for `CCC(=O)NI1OC(=O)c2ccccc21`, the TGI in the assay with SF-539 CNS, in the assay on UACC-257 melanoma, in the assay on LOX IMVI melanoma, in the assay with TK-10 renal, in the assay with K-562 leukemia and in the assay with NCI-H23 lung was over 100 µM throughout. In addition, the TGI with SK-MEL-5 melanoma, with HCT-15 colon, in the assay with MDA-MB-231 breast, in the assay with SF-268 CNS, in the assay on SR leukemia and with UACC-62 melanoma was over 100 µM in each case. Moreover, the TGI in the assay with OVCAR-3 ovarian, in the assay with A549 NSCLC, with COLO 205 colon, in the assay with NCI-H226 lung, in the assay on A498 renal and with M14 melanoma was over 100 µM in each case. This molecule came in with a TGI in the assay with EKVX NSCLC of over 100 µM.
Turning to `COC(=O)[C@H](Cc1ccccc1)NC(=O)N(CCC#N)CCCCN(CCC#N)C(=O)N[C@@H](Cc1ccccc1)C(=O)OC`, the TGI with UACC-257 melanoma, in the assay with LOX IMVI melanoma, in the assay with TK-10 renal, with K-562 leukemia, with NCI-H23 lung and in the assay with SK-MEL-5 melanoma was over 100 µM throughout. Further, the TGI in the assay with HCT-15 colon, in the assay with MDA-MB-231 breast, in the assay with SF-268 CNS, with UACC-62 melanoma, with OVCAR-3 ovarian and in the assay with A549 NSCLC was over 100 µM in each case. Further, the TGI with COLO 205 colon, in the assay with NCI-H226 lung, in the assay on HS 578T breast, in the assay with A498 renal, in the assay with M14 melanoma and with EKVX NSCLC was over 100 µM each time.
As to `O=C1C2=Cc3ccccc3OC2(O)Oc2ccccc21` (configuration not stated), the TGI with SF-539 CNS, with UACC-257 melanoma, in the assay with LOX IMVI melanoma, in the assay with TK-10 renal, in the assay on K-562 leukemia and in the assay with NCI-H23 lung was over 100 µM each time. For the same molecule, the TGI with SK-MEL-5 melanoma, in the assay with HCT-15 colon, with MDA-MB-231 breast, in the assay with SF-268 CNS, with SR leukemia and in the assay with UACC-62 melanoma was over 100 µM throughout. Besides, the TGI in the assay with OVCAR-3 ovarian, with A549 NSCLC, in the assay with COLO 205 colon, with NCI-H226 lung, with A498 renal and in the assay on M14 melanoma was over 100 µM each time. Also, in the assay on EKVX NSCLC, the TGI was over 100 µM.
With `O=C(O)Cc1ccc(Nc2nc3ccccc3nc2C(=O)O)cc1`, the TGI in the assay on SF-539 CNS, with UACC-257 melanoma, with LOX IMVI melanoma, with TK-10 renal, in the assay with NCI-H23 lung and in the assay with SK-MEL-5 melanoma was over 100 µM in each case. Further, the TGI in the assay on HCT-15 colon, in the assay with SF-268 CNS, in the assay on SR leukemia, in the assay with UACC-62 melanoma, in the assay on OVCAR-3 ovarian and in the assay with A549 NSCLC was over 100 µM throughout. Besides, the TGI in the assay on COLO 205 colon, in the assay with NCI-H226 lung, with HS 578T breast, in the assay on A498 renal, with M14 melanoma and in the assay on EKVX NSCLC was over 100 µM each time.

The record behind these values is PubChem BioAssay (NCI).
